Measurements: US20040242487A1, “Regulation of eating behavior” (Joslin Diabetes Center, Inc., a Massachusetts corporation, priority 1995, published 2004)
“Also recorded” adds a separate entry of the source.

How the values were obtained:
MC3-R = target: T1, MC3-R (Mus musculus, UniProt P33033); experiment: HEK-293 assay: ACTH binding to MC3-R after exposure to MCH; assay type: cell-based; conditions: HEK-293 cells stably transfected with MC3-R; exposure to 10^-7 M MCH for 20 minutes or overnight
T1 construct: expressed in transfected cells; host or cells: HEK-293 (human kidney), stably transfected
Description: As discussed herein, heterologous human kidney, HEK-293 cells stably transfected with a plasmid carrying MC3-R can be used to assay MCH activity. It is not clear whether the MCH interaction with the MC3-R receptor is direct or indirect, but application of MCH results in an increase in binding of ACTH to the MC3-R receptor. […] Exposure of cells to 10^-7 M MCH for 20 minutes or overnight results in a 15-100% increase in ACTH binding.

rat = experiment: In vivo rodent brain assay: intraventricular injection, eating behavior; conditions: intraventricular (third ventricle) injection of 5 μg MCH in 5 μl phosphate buffered saline, versus saline controls
Excerpt: As discussed herein, rodents, e.g., rats, can be used to assay MCH activity in vivo. A Teflon catheter can be inserted into the third ventricle of a rat and cemented into place. MCH or its analogs, e.g., agonists or antagonists, can be introduced by way of the catheter at various concentrations, and their effect on eating behavior determined.
To further evaluate the importance of MCH as an appetite regulator, a Teflon catheter was inserted into the third ventricle of a rat and cemented into place, followed by intraventricular injection of 5 μg of MCH in 5 μl of phosphate buffered saline. Control animals received only phosphate buffered saline.

T1 sequence (P33033 whole entry): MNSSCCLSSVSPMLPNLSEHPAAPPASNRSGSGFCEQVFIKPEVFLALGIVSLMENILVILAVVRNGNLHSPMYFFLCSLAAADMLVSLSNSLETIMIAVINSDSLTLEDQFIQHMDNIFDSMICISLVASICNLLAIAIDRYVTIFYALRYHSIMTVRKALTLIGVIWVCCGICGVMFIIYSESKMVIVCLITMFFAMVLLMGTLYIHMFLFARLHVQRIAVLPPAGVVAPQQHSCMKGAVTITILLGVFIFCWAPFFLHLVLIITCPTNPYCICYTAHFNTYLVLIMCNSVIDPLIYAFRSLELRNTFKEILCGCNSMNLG

With melanocyte concentrating hormone [MCH] the “increase in ACTH binding” value (MC3-R) was 15-100% and the “Kcal consumed within one hour” value (rat) was “more than doubling; also recorded: doubling”.
